These results are taken from ChEMBL document CHEMBL5316369, “From the Spectroscopic Reassessment of Authentic Alkaloid Samples to the Molecular Networking-Guided Discovery of Criophylline-Related Analogues from Callichilia inaequalis” (J Nat Prod, 2023).

This experiment has as its system Plasmodium falciparum. Kind of experiment: Antiparasitic activity against chloroquine-resistant Plasmodium falciparum FcB1 assessed as inhibition of parasite growth incubated for 24 hrs by liquid scintillation spectrometer analysis. It is filed as functional, organism-based. The note with it: FcB1, 24 h.
The IC50 is the point on the concentration scale where inhibition reaches its midpoint. `CC[C@@]12CC[C@@]34Nc5ccc([C@@H]6[C@H]7O[C@H]7[C@]7(CC)CC(C(=O)OC)=C8Nc9ccccc9[C@@]89CCN6[C@@H]79)cc5[C@@H]3CCN(C[C@H](O)[C@H]1O)[C@@H]24`: the IC50 came out at 2.9 µM.

For the compound `CC[C@@]12CC[C@@]34Nc5ccc([C@@H]6[C@H]7O[C@H]7[C@]7(CC)CC(C(=O)OC)=C8Nc9ccccc9[C@@]89CCN6[C@@H]79)cc5[C@@H]3CCN(C[C@H]3O[C@H]31)[C@@H]24`, the IC50 turned out to be 54.5 µM.

For `CC[C@@]12CC[C@@]34Nc5ccc([C@@H]6[C@H]7O[C@H]7[C@]7(CC)CC(C(=O)OC)=C8Nc9ccccc9[C@@]89CCN6[C@@H]79)cc5[C@@H]3CCN(C[C@H](OS(=O)(=O)O)[C@H]1O)[C@@H]24`, the IC50 amounted to 14.3 µM.
